Data as given in patent US9493426B2, “Quinazolinone derivatives useful as FGFR kinase modulators” (priority 2013, dated 2016).

Legend:
FGFR1 = biological target: T1, FGFR1 (Homo sapiens, UniProt P11362); assay: Enzyme binding assay (KINOMEscan) FGFR1; settings: FGFR1_pKd, pKd = -log Kd (M)
T1 construct: purchased DiscoveRx Corporation
Experimental: (§1) Enzyme Binding Assays (KINOMEscan®)
(§2) Kinase enzyme binding affinities of compounds disclosed herein were determined using the KINOMEscan® technology performed by DiscoveRx Corporation, San Diego, Calif., USA (www.kinomescan.com).

FGFR2 = biological target: T2, FGFR2 (Homo sapiens, UniProt P21802); assay: Enzyme binding assay (KINOMEscan) FGFR2; settings: pKd = -log Kd (M), read-out: FGFR2_pKd (converted)
T2 construct: purchased DiscoveRx Corporation
Experimental: as §1, §2

FGFR3 = biological target: T3, FGFR3 (Homo sapiens, UniProt P22607); assay: Enzyme binding assay (KINOMEscan) FGFR3; settings: pKd = -log Kd (M), read-out: FGFR3_pKd (converted)
T3 construct: purchased DiscoveRx Corporation
Experimental: as §1, §2

FGFR4 = biological target: T4, FGFR4 (Homo sapiens, UniProt P22455); assay: Enzyme binding assay (KINOMEscan) FGFR4; settings: pKd = -log Kd (M); for Kd: read-out: FGFR4_pKd (converted)
T4 construct: purchased DiscoveRx Corporation
Experimental: as §1, §2

VEGFR2 = biological target: T5, VEGFR2 (Homo sapiens, UniProt P35968); assay: Enzyme binding assay (KINOMEscan) VEGFR2; settings: pKd = -log Kd (M), read-out: VEGFR2_pKd (converted)
T5 construct: purchased DiscoveRx Corporation
Experimental: as §1, §2

T2 sequence (P21802 22-821): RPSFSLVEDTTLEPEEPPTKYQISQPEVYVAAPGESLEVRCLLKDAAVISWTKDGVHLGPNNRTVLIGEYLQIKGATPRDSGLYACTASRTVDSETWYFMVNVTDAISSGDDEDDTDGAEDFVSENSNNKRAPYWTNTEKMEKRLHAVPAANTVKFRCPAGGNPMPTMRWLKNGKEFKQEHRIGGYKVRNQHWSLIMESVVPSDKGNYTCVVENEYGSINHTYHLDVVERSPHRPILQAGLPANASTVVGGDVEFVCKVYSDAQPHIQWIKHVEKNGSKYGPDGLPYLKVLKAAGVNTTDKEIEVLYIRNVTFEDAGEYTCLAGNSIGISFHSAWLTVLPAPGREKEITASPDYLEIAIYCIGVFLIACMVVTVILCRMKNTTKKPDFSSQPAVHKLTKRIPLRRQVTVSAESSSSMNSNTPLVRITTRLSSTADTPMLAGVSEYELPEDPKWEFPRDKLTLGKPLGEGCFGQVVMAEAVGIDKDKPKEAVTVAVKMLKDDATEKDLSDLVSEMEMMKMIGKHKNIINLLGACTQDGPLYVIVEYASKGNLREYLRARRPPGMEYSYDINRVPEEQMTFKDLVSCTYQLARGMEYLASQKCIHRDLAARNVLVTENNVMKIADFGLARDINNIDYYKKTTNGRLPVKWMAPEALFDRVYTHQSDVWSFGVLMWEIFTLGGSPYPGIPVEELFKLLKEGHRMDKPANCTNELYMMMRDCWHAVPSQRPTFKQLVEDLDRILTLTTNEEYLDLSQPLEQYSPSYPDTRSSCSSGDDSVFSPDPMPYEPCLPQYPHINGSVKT
T1 sequence (P11362 22-822): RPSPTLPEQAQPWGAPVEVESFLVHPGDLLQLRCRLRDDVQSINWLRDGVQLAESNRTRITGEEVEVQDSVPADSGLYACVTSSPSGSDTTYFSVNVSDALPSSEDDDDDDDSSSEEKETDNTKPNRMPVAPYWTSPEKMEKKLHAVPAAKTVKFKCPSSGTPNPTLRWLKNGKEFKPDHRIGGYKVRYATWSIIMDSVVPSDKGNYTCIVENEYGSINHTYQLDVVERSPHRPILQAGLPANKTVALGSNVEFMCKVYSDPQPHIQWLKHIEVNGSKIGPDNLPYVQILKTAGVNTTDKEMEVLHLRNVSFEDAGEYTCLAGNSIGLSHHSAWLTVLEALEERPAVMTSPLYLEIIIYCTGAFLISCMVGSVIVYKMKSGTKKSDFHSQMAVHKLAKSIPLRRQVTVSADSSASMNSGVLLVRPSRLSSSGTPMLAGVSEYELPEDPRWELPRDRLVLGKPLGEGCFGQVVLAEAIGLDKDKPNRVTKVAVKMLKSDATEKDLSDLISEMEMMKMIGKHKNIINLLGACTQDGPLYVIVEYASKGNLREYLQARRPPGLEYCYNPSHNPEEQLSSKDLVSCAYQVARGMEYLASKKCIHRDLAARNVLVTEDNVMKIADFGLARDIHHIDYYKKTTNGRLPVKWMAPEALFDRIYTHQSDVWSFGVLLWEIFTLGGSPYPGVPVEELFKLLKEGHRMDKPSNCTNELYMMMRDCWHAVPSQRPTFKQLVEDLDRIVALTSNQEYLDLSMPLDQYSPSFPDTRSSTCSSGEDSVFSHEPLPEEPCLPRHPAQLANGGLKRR
T3 sequence (P22607 23-806): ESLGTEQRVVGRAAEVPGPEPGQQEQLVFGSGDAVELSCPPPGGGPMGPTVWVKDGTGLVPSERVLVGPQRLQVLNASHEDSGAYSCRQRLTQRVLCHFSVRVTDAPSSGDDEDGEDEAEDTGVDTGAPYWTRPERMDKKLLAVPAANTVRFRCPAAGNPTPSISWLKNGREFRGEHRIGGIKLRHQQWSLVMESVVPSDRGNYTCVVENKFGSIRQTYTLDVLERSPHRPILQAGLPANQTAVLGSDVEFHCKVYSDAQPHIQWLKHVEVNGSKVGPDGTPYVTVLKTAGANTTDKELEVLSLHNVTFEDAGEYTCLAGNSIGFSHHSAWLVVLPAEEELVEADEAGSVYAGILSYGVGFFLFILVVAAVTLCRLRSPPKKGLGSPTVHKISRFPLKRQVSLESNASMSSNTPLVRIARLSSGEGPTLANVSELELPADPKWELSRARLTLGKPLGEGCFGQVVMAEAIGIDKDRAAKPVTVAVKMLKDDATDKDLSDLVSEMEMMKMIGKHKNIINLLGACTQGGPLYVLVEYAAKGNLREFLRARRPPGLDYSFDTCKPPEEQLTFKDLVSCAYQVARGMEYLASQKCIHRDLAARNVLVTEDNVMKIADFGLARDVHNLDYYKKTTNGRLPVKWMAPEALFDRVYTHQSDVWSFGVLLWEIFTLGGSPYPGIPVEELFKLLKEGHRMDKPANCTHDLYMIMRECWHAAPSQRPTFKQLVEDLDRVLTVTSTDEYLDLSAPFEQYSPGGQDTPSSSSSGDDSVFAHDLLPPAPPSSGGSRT
T5 sequence (P35968 20-1356): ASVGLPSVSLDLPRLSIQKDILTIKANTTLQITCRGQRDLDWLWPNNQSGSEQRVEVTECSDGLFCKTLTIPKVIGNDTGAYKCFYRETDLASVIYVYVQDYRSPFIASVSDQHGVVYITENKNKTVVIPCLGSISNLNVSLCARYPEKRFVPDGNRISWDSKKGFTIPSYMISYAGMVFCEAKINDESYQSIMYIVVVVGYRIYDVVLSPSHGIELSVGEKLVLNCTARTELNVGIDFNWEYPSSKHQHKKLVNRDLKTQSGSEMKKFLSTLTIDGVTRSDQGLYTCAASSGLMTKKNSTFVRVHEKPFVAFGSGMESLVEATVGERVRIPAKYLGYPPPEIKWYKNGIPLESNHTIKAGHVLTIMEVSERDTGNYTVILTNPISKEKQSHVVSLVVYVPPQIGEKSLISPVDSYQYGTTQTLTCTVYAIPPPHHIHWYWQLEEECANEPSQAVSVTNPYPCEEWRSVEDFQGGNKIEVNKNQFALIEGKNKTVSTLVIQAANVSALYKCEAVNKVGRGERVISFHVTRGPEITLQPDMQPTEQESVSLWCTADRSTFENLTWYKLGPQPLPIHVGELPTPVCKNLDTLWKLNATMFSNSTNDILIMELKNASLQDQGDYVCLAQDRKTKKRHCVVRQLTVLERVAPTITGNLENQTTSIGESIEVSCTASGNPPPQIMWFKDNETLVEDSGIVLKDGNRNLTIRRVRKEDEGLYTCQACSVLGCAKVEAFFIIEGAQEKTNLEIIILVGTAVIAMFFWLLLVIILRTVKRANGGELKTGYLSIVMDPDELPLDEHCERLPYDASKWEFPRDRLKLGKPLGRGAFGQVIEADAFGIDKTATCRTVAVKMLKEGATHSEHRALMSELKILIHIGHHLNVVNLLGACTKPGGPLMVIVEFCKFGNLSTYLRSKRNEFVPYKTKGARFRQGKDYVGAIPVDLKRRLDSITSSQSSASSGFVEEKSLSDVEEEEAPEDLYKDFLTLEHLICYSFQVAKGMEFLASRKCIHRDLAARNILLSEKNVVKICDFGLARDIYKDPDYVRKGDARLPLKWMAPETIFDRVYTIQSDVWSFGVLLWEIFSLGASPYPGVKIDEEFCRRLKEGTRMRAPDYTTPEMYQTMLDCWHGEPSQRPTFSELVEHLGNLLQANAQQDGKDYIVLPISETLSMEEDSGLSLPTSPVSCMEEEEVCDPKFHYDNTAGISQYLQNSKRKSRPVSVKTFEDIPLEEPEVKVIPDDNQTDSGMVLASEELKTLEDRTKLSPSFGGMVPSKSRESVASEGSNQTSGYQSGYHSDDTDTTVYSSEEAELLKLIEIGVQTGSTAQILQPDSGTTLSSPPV
T4 sequence (P22455 22-802): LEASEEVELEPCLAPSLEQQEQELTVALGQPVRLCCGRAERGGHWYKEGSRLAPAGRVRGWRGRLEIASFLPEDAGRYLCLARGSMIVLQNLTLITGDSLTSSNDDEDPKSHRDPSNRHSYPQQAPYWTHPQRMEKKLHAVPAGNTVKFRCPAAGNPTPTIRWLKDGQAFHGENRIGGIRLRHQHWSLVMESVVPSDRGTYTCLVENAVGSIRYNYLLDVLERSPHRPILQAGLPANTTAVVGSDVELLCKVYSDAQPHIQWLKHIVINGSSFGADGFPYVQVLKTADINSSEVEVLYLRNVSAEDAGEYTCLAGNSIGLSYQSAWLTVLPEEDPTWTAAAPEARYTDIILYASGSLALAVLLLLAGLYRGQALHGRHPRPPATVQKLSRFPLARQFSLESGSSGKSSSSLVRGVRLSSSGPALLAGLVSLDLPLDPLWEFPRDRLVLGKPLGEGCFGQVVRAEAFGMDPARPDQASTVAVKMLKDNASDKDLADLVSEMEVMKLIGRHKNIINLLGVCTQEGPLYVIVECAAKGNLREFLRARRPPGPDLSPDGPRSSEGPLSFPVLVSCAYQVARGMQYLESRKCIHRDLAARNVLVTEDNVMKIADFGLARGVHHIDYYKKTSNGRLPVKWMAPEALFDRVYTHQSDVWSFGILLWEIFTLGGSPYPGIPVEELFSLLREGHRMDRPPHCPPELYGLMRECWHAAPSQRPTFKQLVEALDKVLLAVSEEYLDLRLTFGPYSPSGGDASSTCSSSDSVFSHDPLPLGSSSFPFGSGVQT

| SMILES | Kd (FGFR1) | Kd (FGFR2) | Kd (FGFR3) | Kd (FGFR4) | Kd (VEGFR2) | melting point | FGFR4_pKd (FGFR4) |
| --- | --- | --- | --- | --- | --- | --- | --- |
| CNCCN(c1cc(OC)cc(OC)c1)c1ccc2ncn(C3CCOCC3)c(=O)c2c1 [Compound 71] | 6.31e-07 M | 3.98e-07 M | 1.26e-06 M | > 3.16e-06 M | > 3.16e-06 M | 135 °C |  |
| COc1cc(OC)cc(N(CCCNC(C)C)c2ccc3ncn(C4CCOCC4)c(=O)c3c2)c1 [Compound 73] | 6.31e-08 M | 5.01e-08 M | 1.58e-07 M |  | > 3.16e-06 M | 240 °C | 5.9 |
| COc1cc(OC)c(F)c(N(CCO)c2ccc3ncn(-c4cncnc4)c(=O)c3c2)c1 [Compound 74] | 7.94e-07 M | 1.26e-07 M | 3.98e-07 M | 2e-06 M | > 3.16e-06 M | 200 °C |  |
| COc1cc(OC)c(F)c(N(Cc2ncc[nH]2)c2ccc3ncn(C4CCOCC4)c(=O)c3c2)c1 [Compound 75] | 3.98e-08 M | 1e-08 M | 1.58e-08 M | 2e-07 M | > 3.16e-06 M | > 260 °C |  |
| COc1cc(OC)c(F)c(N(CCO)c2ccc3ncn(-c4cncnc4)c(=O)c3c2)c1F [Compound 76] | 6.31e-08 M | 1.58e-08 M | 3.16e-08 M | 2e-07 M | > 3.16e-06 M | 178 °C |  |
